Results taken from ChEMBL document CHEMBL5126521, “Analgesic Opioid Ligand Discovery Based on Nonmorphinan Scaffolds Derived from Natural Sources” (J Med Chem, 2022).
Square brackets hold non-standard residues; d marks the D form. Peptide text beside a SMILES is read from it. Dmt = Cc1cc(O)cc(C)c1C[C@H](N)C(=O)O; Tic = O=C(O)[C@@H]1Cc2ccccc2CN1

Experiments:
Mus musculus [1] = assay: Antinociceptive activity in icv dosed C57BL/6J mouse assessed as tail withdrawal latency from warm water; assay type: functional
[2] = Half life in mouse liver microsomes; assay type: ADME, Microsome
[3] = Toxicity in icv dosed C57BL/6J mouse assessed as antinociceptive activity tolerance; assay type: organism-based; details: in vivo, icv_or_intrathecal
Mu-type opioid receptor [4] = biological target: Mu-type opioid receptor (Cavia porcellus, UniProt P97266); assay: Antagonist activity at guinea pig ileum MOP; assay type: functional, tissue-based
Mus musculus [5] = assay: Antinociceptive activity in mouse administered icv; assay type: functional
Mu-type opioid receptor [6] = biological target: T1, Mu-type opioid receptor (Homo sapiens, UniProt P35372); assay: Displacement of [3H]DAMGO from MOP (unknown origin) stably expressed in CHO cell membrane incubated for 90 mins by scintillation counter analysis; assay type: cell membranes
[7] = biological target: T2, Kappa-type opioid receptor (Homo sapiens, UniProt P41145); assay: Displacement of [3H]diprenorphine from KOP (unknown origin) stably expressed in CHO cell membrane incubated for 90 mins by scintillation counter analysis; assay type: cell membranes
Mu-type opioid receptor [8] = biological target: Mu-type opioid receptor (Mus musculus, UniProt P42866); assay: Antagonist activity at mouse vas deferns MOP; assay type: functional
Rattus norvegicus [9] = assay: Antinociceptive activity in rat administered icv by tail pressure test relative to control; assay type: functional; parameters: concentration or dose not given beside the values
Mu-type opioid receptor [10] = biological target: T1, Mu-type opioid receptor; assay: Agonist activity at human MOP expressed in CHO-K1 cell membrane assessed as [35S]GTPgammaS binding relative to control; assay type: functional, cell membranes; details: filed as agonist
Mu-type opioid receptor [11] = biological target: T1, Mu-type opioid receptor; assay: Agonist activity at human MOP expressed in CHO-K1 cell membrane assessed as [35S]GTPgammaS binding; assay type: functional, cell membranes
[12] = biological target: T3, Delta-type opioid receptor (Homo sapiens, UniProt P41143); assay: Displacement of [3H]DPDPE from human DOP expressed in CHO-K1 cell membrane incubated for 60 mins by Microscint-counting analysis; assay type: cell membranes
Rattus norvegicus [13] = assay: Antinociceptive activity in Sprague-Dawley rat assessed as tail flick response in warm water administered iv; assay type: functional
Mu-type opioid receptor [14] = biological target: T1, Mu-type opioid receptor; assay: Displacement of [3H]DAMGO from human MOP expressed in CHO-K1 cell membrane incubated for 60 mins by Microscint-counting analysis; assay type: cell membranes
Rattus norvegicus [15] = assay: Antinociceptive activity in Sprague-Dawley rat assessed as tail flick response in warm water administered icv; assay type: functional
Mus musculus [16] = assay: Antinociceptive activity in po dosed C57BL/6J mouse assessed as tail withdrawal latency from warm water; assay type: functional
Mus musculus [17] = assay: Antinociceptive activity in Kunming mouse assessed as heat paw withdrawal measured after 10 secs administered icv; assay type: functional; details: time 10 sec, 10 s
[18] = biological target: T3, Delta-type opioid receptor; assay: Binding affinity to DOP (unknown origin)
Mu-type opioid receptor [19] = biological target: T1, Mu-type opioid receptor; assay: Binding affinity to MOP (unknown origin)
[20] = Stability in mouse serum assessed as half life; assay type: ADME, cell-free
[21] = Stability in rat brain homogenate assessed as half life; assay type: ADME, tissue-based
[22] = biological target: T3, Delta-type opioid receptor; assay: Displacement of [3H]DPDPE from DOP (unknown origin) stably expressed in CHO cell membrane incubated for 90 mins by scintillation counter analysis; assay type: cell membranes
[23] = biological target: T2, Kappa-type opioid receptor; assay: Inhibition of KOP (unknown origin)
[24] = biological target: T3, Delta-type opioid receptor; assay: Inhibition of DOP (unknown origin)
Mus musculus [25] = assay: Antinociceptive activity in ip dosed mouse assessed as tail flick latency; assay type: functional
[26] = Degradation half life in rat brain homogenate; assay type: ADME, tissue-based

T1 sequence (P35372 whole entry): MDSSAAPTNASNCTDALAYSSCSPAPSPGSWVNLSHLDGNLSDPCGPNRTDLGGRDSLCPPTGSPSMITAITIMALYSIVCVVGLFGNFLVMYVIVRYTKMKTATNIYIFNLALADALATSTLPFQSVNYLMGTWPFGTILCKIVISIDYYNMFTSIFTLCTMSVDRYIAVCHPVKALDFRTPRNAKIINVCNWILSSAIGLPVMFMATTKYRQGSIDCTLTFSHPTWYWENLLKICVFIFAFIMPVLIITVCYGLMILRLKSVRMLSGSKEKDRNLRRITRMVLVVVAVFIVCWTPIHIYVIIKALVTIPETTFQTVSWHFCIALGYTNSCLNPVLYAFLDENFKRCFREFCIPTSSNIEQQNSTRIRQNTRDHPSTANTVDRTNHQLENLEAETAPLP
T2 sequence (P41145 whole entry): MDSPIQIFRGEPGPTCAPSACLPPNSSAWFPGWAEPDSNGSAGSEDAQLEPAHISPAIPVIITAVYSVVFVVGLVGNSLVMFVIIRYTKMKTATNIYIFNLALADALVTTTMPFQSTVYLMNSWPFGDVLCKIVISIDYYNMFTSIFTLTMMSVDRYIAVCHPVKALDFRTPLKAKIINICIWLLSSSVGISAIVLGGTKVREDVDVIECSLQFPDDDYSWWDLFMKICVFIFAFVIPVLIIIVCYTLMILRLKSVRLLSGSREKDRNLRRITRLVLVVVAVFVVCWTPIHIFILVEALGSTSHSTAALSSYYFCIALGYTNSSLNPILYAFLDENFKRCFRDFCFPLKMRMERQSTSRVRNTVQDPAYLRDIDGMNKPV
T3 sequence (P41143 whole entry): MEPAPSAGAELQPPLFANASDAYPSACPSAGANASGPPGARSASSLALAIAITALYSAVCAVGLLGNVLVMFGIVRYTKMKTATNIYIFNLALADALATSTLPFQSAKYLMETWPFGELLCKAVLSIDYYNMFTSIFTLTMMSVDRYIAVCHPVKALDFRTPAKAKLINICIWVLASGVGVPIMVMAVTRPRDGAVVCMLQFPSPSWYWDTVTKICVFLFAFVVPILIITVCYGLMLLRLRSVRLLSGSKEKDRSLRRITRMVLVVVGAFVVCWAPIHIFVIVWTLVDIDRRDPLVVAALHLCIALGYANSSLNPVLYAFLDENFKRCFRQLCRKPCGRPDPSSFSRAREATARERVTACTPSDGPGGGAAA
Mu-type opioid receptor (Mus musculus, UniProt P42866), sequence (P42866 whole entry): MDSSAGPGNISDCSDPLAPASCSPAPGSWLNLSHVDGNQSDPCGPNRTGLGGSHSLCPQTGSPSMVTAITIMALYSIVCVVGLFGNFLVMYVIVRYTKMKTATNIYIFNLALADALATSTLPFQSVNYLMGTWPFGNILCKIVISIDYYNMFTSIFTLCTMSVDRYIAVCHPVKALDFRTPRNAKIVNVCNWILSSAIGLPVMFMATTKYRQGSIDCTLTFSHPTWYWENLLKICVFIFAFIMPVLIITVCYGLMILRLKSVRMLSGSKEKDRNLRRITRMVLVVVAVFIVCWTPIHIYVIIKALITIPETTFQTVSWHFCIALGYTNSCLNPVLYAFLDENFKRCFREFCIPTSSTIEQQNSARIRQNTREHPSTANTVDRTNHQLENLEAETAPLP
Mu-type opioid receptor (Cavia porcellus, UniProt P97266), sequence (P97266 whole entry): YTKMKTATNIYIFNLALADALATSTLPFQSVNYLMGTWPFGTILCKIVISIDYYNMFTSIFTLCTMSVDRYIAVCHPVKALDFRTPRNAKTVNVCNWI

O=C1N[C@@H](Cc2ccccc2)C(=O)N2CCC[C@@H]2C(=O)N[C@H](Cc2ccccc2)C(=O)N[C@H]1Cc1c[nH]c2ccccc12
ED50 (Mus musculus [1]): 20.4 nmol | half-life [2]: ≤ 30 min | ED50 [3]: 125 nmol

N=C(N)NCCC[C@@H](NC(=O)[C@@H](N)Cc1ccc(O)cc1)C(N)=O
IC50 (Mu-type opioid receptor [4]): 44000 nM | ED50 (Mus musculus [5]): 47000 pmol

O=C1N[C@H](Cc2c[nH]c3ccccc23)C(=O)N[C@H](Cc2ccccc2)C(=O)N2CCC[C@@H]2C(=O)N[C@H]1Cc1ccccc1
ED50 (Mus musculus [1]): 2.39 nmol | Ki (Mu-type opioid receptor [6]): > 100000 nM | half-life [2]: ≤ 30 min | Ki [7]: > 100000 nM

C[C@@H](NC(=O)[C@@H](N)Cc1ccc(O)cc1)C(=O)N[C@@H](Cc1ccccc1)C(N)=O
IC50 (Mu-type opioid receptor [4]): 262 nM | IC50 (Mu-type opioid receptor [8]): 4050 nM | Activity (Rattus norvegicus [9]): <0.2%

NC(=O)[C@@H]1CCC(=O)NCCCC[C@@H](NC(=O)[C@@H](N)Cc2ccc(O)cc2)C(=O)N[C@@H](Cc2c[nH]c3ccccc23)C(=O)N[C@@H](Cc2ccccc2)C(=O)N1
Emax (Mu-type opioid receptor [10]): 100% | EC50 (Mu-type opioid receptor [11]): 0.43 nM | Ki [12]: 83 nM | ED50 (Rattus norvegicus [13]): 2.2 mg/kg | Ki (Mu-type opioid receptor [14]): 0.63 nM | ED50 (Rattus norvegicus [15]): 0.021 nmol

O=C1N[C@H](Cc2ccccc2)C(=O)N2CCC[C@@H]2C(=O)N[C@H](Cc2ccccc2)C(=O)N[C@H]1Cc1c[nH]c2ccccc12
ED50 (Mus musculus [1]): 1 nmol | half-life [2]: ≤ 30 min | ED50 (Mus musculus [16]): 4.12 mg/kg | ED50 [3]: 5.19 nmol

COC(=O)[C@H](Cc1ccccc1)NC(=O)[C@H](Cc1ccccc1)NC(=O)[C@@H]1CCCN1C(=O)[C@@H](N)Cc1ccc(O)cc1
ED50 (Mus musculus [17]): 3 nmol | Ki [18]: > 10000 nM | Ki (Mu-type opioid receptor [19]): 9.07 nM | half-life [20]: 30.1 min | half-life [21]: 47.6 min

N=C(N)NCCC[C@@H](NC(=O)[C@@H](N)Cc1ccc(O)cc1)C(=O)N[C@@H](Cc1ccccc1)C(=O)NCC(=O)N[C@@H](Cc1ccc(O)cc1)C(=O)N1CCC[C@H]1C(N)=O
IC50 (Mu-type opioid receptor [4]): 190 nM | ED50 (Mus musculus [5]): 12.5 pmol

C[C@@H]1NC(=O)[C@H](Cc2ccccc2)NC(=O)[C@H]2CCCN2C(=O)[C@H](Cc2ccccc2)NC1=O
ED50 (Mus musculus [1]): 6.97 nmol | Ki (Mu-type opioid receptor [6]): 687 nM | Ki [7]: 1550 nM | Ki [22]: > 10 µM

C[C@@H](NC(=O)[C@@H](N)Cc1ccc(O)cc1)C(=O)N[C@@H](Cc1ccccc1)C(=O)NCC(=O)O (H-Y[dA]FG-OH)
IC50 (Mu-type opioid receptor [4]): 34.5 nM | IC50 (Mu-type opioid receptor [8]): 263 nM | Ki [18]: 1800 nM | Ki (Mu-type opioid receptor [19]): 11.9 nM | Activity (Rattus norvegicus [9]): 25%

O=C1N[C@H](Cc2ccccc2)C(=O)N[C@H](Cc2c[nH]c3ccccc23)C(=O)N[C@@H](Cc2ccccc2)C(=O)N2CCC[C@H]12
ED50 (Mus musculus [1]): 0.56 nmol | half-life [2]: ≤ 30 min | ED50 (Mus musculus [16]): 4.72 mg/kg | ED50 [3]: 0.49 nmol

C[C@@H]1NC(=O)[C@H](Cc2c[nH]c3ccccc23)NC(=O)[C@H](Cc2ccccc2)NC(=O)[C@H]2CCCN2C1=O
ED50 (Mus musculus [1]): 1.49 nmol | Ki (Mu-type opioid receptor [6]): 32.2 nM | Ki [7]: 8 nM | Ki [22]: 8.68 µM

C[C@@H](NC(=O)[C@@H](N)Cc1ccc(O)cc1)C(=O)N[C@@H](Cc1ccccc1)C(=O)NCC(=O)N[C@@H](Cc1ccc(O)cc1)C(=O)N1CCC[C@H]1C(N)=O
IC50 (Mu-type opioid receptor [4]): 2.7 nM | IC50 (Mu-type opioid receptor [8]): 43.2 nM | Ki [18]: 320 nM | Ki (Mu-type opioid receptor [19]): 1.6 nM | Activity (Rattus norvegicus [9]): 25%

CC[C@H]1CN2CCc3c([nH]c4cccc(OC)c34)[C@@H]2C[C@@H]1/C(=C\OC)C(=O)OC
IC50 [23]: 10 µM | Ki [18]: > 10000 nM | IC50 [24]: > 10 µM

COC(=O)[C@@H]1C[C@H](O[C@@H]2CCCCO2)C(=O)[C@H]2[C@@]1(C)CC[C@H]1C(=O)O[C@H](c3ccoc3)C[C@]21C
ED50 (Mus musculus [25]): 1.4 mg/kg

O=C1N[C@H](Cc2ccccc2)C(=O)N2CCC[C@@H]2C(=O)N[C@@H](Cc2ccccc2)C(=O)N[C@H]1Cc1c[nH]c2ccccc12
ED50 (Mus musculus [1]): 0.75 nmol | Ki (Mu-type opioid receptor [6]): > 100000 nM | half-life [2]: 54 min | ED50 (Mus musculus [16]): 7.62 mg/kg | ED50 [3]: 20.3 nmol

Cc1cc(O)cc(C)c1C[C@H](N)C(=O)N1Cc2ccccc2C[C@H]1C(=O)N[C@@H](Cc1ccccc1)C(=O)N[C@@H](Cc1ccccc1)C(N)=O (H-[Dmt][Tic]FF-NH2)
half-life [26]: 6.1 min
